Experimental data taken from ChEMBL document CHEMBL3872201, “Synthesis and antiproliferative activity of a natural like glycoconjugate polycyclic compound” (2016).
Active and inactive are the calls of the source. The calls are words filed in the database; no cut-off is given here.

Key:
[1] = Antiproliferative activity against human SR cells after 48 hrs by sulforhodamine B assay; type: functional
[2] = Antiproliferative activity against human RPMI8226 cells after 48 hrs by sulforhodamine B assay; type: functional; conditions: RPMI-8226, 48 h
[3] = Antiproliferative activity against human Hs 578T cells after 48 hrs by sulforhodamine B assay; type: functional
[4] = Cell cycle arrest in human MDA-MB-231 cells assessed as cell enlargement at 5 to 10 uM after 8 days by light microscopic analysis; type: functional, cell-based
[5] = test system: MDA-MB-231; experiment: Effect on cell cycle regulatory protein in human MDA-MB-231 cells assessed as cdc2 level at 10 uM after 24 hrs by Western blot analysis relative to control; type: functional
[6] = Antiproliferative activity against human PC3 cells after 48 hrs by sulforhodamine B assay; type: functional; conditions: PC-3, 48 h
[7] = Cell cycle arrest in human MDA-MB-231 cells assessed as accumulation at subG0/G1 phase at 5 uM after 48 hrs by propidium iodide staining based flow cytometric analysis (reference value: 8.8%); type: functional
[8] = Cell cycle arrest in human MDA-MB-231 cells assessed as accumulation at G2/M phase at 10 uM after 24 hrs by propidium iodide staining based flow cytometric analysis (reference value: 20.4%); type: functional
[9] = Antiproliferative activity against human SNB19 cells after 48 hrs by sulforhodamine B assay; type: functional; conditions: SNB-19, 48 h
[10] = test system: MDA-MB-231; experiment: Effect on cell cycle regulatory protein in human MDA-MB-231 cells assessed as p21 level at 10 uM after 24 hrs by Western blot analysis relative to control; type: functional
[11] = Cell cycle arrest in human MDA-MB-231 cells assessed as accumulation at G2/M phase after 96 to 120 hrs by propidium iodide staining based flow cytometric analysis; type: functional
[12] = Cell cycle arrest in human MDA-MB-231 cells assessed as accumulation at G0/G1 phase at 5 uM after 24 hrs by propidium iodide staining based flow cytometric analysis (reference value: 66.5%); type: functional
[13] = Antiproliferative activity against human SN12C cells after 48 hrs by sulforhodamine B assay; type: functional
[14] = Antiproliferative activity against human HT-29 cells after 48 hrs by sulforhodamine B assay; type: functional; conditions: HT-29, 48 h
[15] = Cell cycle arrest in human MDA-MB-231 cells assessed as accumulation at G0/G1 phase at 10 uM after 48 hrs by propidium iodide staining based flow cytometric analysis (reference value: 67%); type: functional
[16] = Antiproliferative activity against human OVCAR8 cells after 48 hrs by sulforhodamine B assay; type: functional; conditions: OVCAR-8, 48 h
[17] = Antiproliferative activity against human M14 cells after 48 hrs by sulforhodamine B assay; type: functional; conditions: M14, 48 h
[18] = Cell cycle arrest in human MDA-MB-231 cells assessed as accumulation at subG0/G1 phase at 10 uM after 72 hrs by propidium iodide staining based flow cytometric analysis (reference value: 6.3%); type: functional
[19] = test system: MDA-MB-231; experiment: Effect on cell cycle regulatory protein in human MDA-MB-231 cells assessed as p21 level at 5 uM after 24 hrs by Western blot analysis relative to control; type: functional
[20] = Antiproliferative activity against human MCF7 cells after 48 hrs by sulforhodamine B assay; type: functional; conditions: MCF7, 48 h
[21] = Antiproliferative activity against human Caki1 cells after 48 hrs by sulforhodamine B assay; type: functional; conditions: CAKI-1, 48 h
[22] = Antiproliferative activity against human SKOV3 cells after 48 hrs by sulforhodamine B assay; type: functional; conditions: SK-OV-3, 48 h
[23] = Cell cycle arrest in human MDA-MB-231 cells assessed as cell flattening at 5 to 10 uM after 8 days by light microscopic analysis; type: functional, cell-based
[24] = Antiproliferative activity against human HOP92 cells after 48 hrs by sulforhodamine B assay; type: functional; conditions: HOP-92, 48 h
[25] = Antiproliferative activity against human UACC62 cells after 48 hrs by sulforhodamine B assay; type: functional; conditions: UACC-62, 48 h
[26] = Cell cycle arrest in human MDA-MB-231 cells assessed as accumulation at G0/G1 phase at 10 uM after 72 hrs by propidium iodide staining based flow cytometric analysis (reference value: 69.3%); type: functional
[27] = Antiproliferative activity against human MOLT4 cells after 48 hrs by sulforhodamine B assay; type: functional; conditions: MOLT-4, 48 h
[28] = Antiproliferative activity against human OVCAR5 cells after 48 hrs by sulforhodamine B assay; type: functional; conditions: OVCAR-5, 48 h
[29] = Cell cycle arrest in human MDA-MB-231 cells assessed as accumulation at subG0/G1 phase at 5 uM after 24 hrs by propidium iodide staining based flow cytometric analysis (reference value: 7.6%); type: functional
[30] = Antiproliferative activity against human MDA-MB-231 cells after 48 hrs by sulforhodamine B assay; type: functional; conditions: MDA-MB-231, 48 h
[31] = Cell cycle arrest in human MDA-MB-231 cells assessed as accumulation at subG0/G1 phase at 10 uM after 48 hrs by propidium iodide staining based flow cytometric analysis (reference value: 8.8%); type: functional
[32] = Cell cycle arrest in human MDA-MB-231 cells assessed as accumulation at G0/G1 phase at 5 uM after 48 hrs by propidium iodide staining based flow cytometric analysis (reference value: 67%); type: functional
[33] = Cell cycle arrest in human MDA-MB-231 cells assessed as accumulation at G2/M phase at 10 uM after 48 hrs by propidium iodide staining based flow cytometric analysis (reference value: 19.5%); type: functional
[34] = Antiproliferative activity against human IGROV1 cells after 48 hrs by sulforhodamine B assay; type: functional; conditions: IGROV-1, 48 h
[35] = test system: MDA-MB-231; experiment: Effect on cell cycle regulatory protein in human MDA-MB-231 cells assessed as cdc2 level at 10 uM after 48 hrs by Western blot analysis relative to control; type: functional
[36] = read-out: LC50 (the source's name)

C=C1c2c(C)nn(-c3ccc(C#CCO[C@@H]4O[C@H](CO)[C@@H](O)[C@H](O)[C@H]4O)cc3)c2N(C)C23CC1C1(C)c4c(C)nn(-c5ccc(C#CCO[C@@H]6O[C@H](CO)[C@@H](O)[C@H](O)[C@H]6O)cc5)c4N(C)C(C)(CC12)C3 (stereo partly specified)
GI50 [1]: 3.28 µM
TGI [1]: 100 µM
CC50 [1, 36]: 100 µM
GI50 [2]: 0.29 µM
TGI [2]: 1.72 µM
CC50 [2, 36]: 100 µM
GI50 [3]: 0.47 µM
TGI [3]: 9.85 µM
CC50 [3, 36]: 100 µM
Activity [4]: Active
fold change (FC) [5]: 0.8
GI50 [6]: 0.7 µM
TGI [6]: 2.56 µM
CC50 [6, 36]: 7.79 µM
Activity [7]: 2.1%
Activity [8]: 36.6%
GI50 [9]: 1.66 µM
TGI [9]: 3.95 µM
CC50 [9, 36]: 9.37 µM
fold change (FC) [10]: 1
Activity [11]: Active
Activity [12]: 56.9%
GI50 [13]: 1.38 µM
TGI [13]: 3.72 µM
CC50 [13, 36]: 9.99 µM
GI50 [14]: 1.63 µM
TGI [14]: 4.21 µM
CC50 [14, 36]: 16.1 µM
Activity [15]: 61.3%
GI50 [16]: 1 µM
TGI [16]: 3.84 µM
CC50 [16, 36]: 55.1 µM
GI50 [17]: 1.67 µM
TGI [17]: 3.44 µM
CC50 [17, 36]: 7.06 µM
Activity [18]: 1.6%
fold change (FC) [19]: 0.1
GI50 [20]: 1.38 µM
TGI [20]: 3.2 µM
CC50 [20, 36]: 7.42 µM
GI50 [21]: 2.81 µM
TGI [21]: 11.6 µM
CC50 [21, 36]: 49 µM
GI50 [22]: 1.72 µM
TGI [22]: 3.11 µM
CC50 [22, 36]: 5.61 µM
Activity [23]: Active
GI50 [24]: 0.43 µM
TGI [24]: 2.52 µM
CC50 [24, 36]: 8.63 µM
GI50 [25]: 1.22 µM
TGI [25]: 2.86 µM
CC50 [25, 36]: 6.71 µM
Activity [26]: 61.8%
GI50 [27]: 1.28 µM
TGI [27]: 3.88 µM
CC50 [27, 36]: 100 µM
GI50 [28]: 1.78 µM
TGI [28]: 3.54 µM
CC50 [28, 36]: 7.05 µM
Activity [29]: 7.1%
GI50 [30]: 1.5 µM
TGI [30]: 3.06 µM
CC50 [30, 36]: 6.23 µM
Activity [31]: 4.6%
Activity [32]: 64.3%
Activity [33]: 31.1%
GI50 [34]: 1.56 µM
TGI [34]: 3.95 µM
CC50 [34, 36]: 10.1 µM
fold change (FC) [35]: 0.3
